“And” between values parts separate entries of the source, which are not always exact repeats. Equal entries are not always repeated. Toxic doses and inconclusive results are not listed. Cut-off read from the data, not from the text of the source: active = T/C of 150% or more; inactive = T/C below 125%.
Test system: L1210 leukemia ip in BDF1 mice, survival T/C
Assay: NCI In Vivo Anticancer Drug Screen. Data for tumor model L1210 Leukemia (intraperitoneal) in B6D2F1 (BDF1) mice
Settings: endpoint: mean survival time, higher = longer survival
Procedure: The antitumor activity of compounds was measured in mice bearing transplantable tumors. Survival or tumor size were measured and the results are expressed as the measurement made in the treated group (T) divided by the measurement made in the vehicle treated control group (C). The tumor model used in this assay is L1210 Leukemia (intraperitoneal) in B6D2F1 (BDF1) mice

[1] = dose: 100.0 mg/kg/injection, schedule: Q04DX003 (ip), vehicle: Klucel (hydroxypropylcellulose) (HPC)
[2] = dose: 200.0 mg/kg/injection, schedule: Q04DX003 (ip), vehicle: Klucel (hydroxypropylcellulose) (HPC)
[3] = dose: 400.0 mg/kg/injection, schedule: Q04DX003 (ip), vehicle: Klucel (hydroxypropylcellulose) (HPC)
[4] = dose: 200.0 mg/kg/injection, schedule: Q01DX009 (ip), vehicle: Klucel (hydroxypropylcellulose) (HPC)
[5] = dose: 400.0 mg/kg/injection, schedule: Q01DX009 (ip), vehicle: Klucel (hydroxypropylcellulose) (HPC)
[6] = dose: 100.0 mg/kg/injection, schedule: Q01DX009 (ip), vehicle: saline with Tween-80
[7] = dose: 200.0 mg/kg/injection, schedule: Q01DX009 (ip), vehicle: saline with Tween-80
[8] = dose: 400.0 mg/kg/injection, schedule: Q01DX009 (ip), vehicle: saline with Tween-80
[9] = dose: 100.0 mg/kg/injection, schedule: Q01DX009 (ip), vehicle: Klucel (hydroxypropylcellulose) (HPC)
[10] = dose: 100.0 mg/kg/injection, schedule: Q04DX003 (ip), vehicle: saline
[11] = dose: 200.0 mg/kg/injection, schedule: Q04DX003 (ip), vehicle: saline
[12] = dose: 400.0 mg/kg/injection, schedule: Q04DX003 (ip), vehicle: saline
[13] = dose: 25.0 mg/kg/injection, schedule: Q04DX003 (ip), vehicle: Klucel (hydroxypropylcellulose) (HPC)
[14] = dose: 50.0 mg/kg/injection, schedule: Q04DX003 (ip), vehicle: Klucel (hydroxypropylcellulose) (HPC)
[15] = dose: 100.0 mg/kg/injection, schedule: Q04DX003 (ip), vehicle: saline with Tween-80
[16] = dose: 200.0 mg/kg/injection, schedule: Q04DX003 (ip), vehicle: saline with Tween-80

Measured: T/C

C[CH2][Pb]([CH2]C)([CH2]C)[O][As](=O)(O)c1ccc(N)cc1
inactive: dose: 0.75 mg/kg/injection, schedule: Q01DX009 (ip), vehicle: Klucel (hydroxypropylcellulose) (HPC) 98 % of control | dose: 1.5 mg/kg/injection, schedule: Q01DX009 (ip), vehicle: Klucel (hydroxypropylcellulose) (HPC) 102 % of control | dose: 1.5 mg/kg/injection, schedule: Q04DX003 (ip), vehicle: Klucel (hydroxypropylcellulose) (HPC) 96 % of control | dose: 3.0 mg/kg/injection, schedule: Q01DX009 (ip), vehicle: Klucel (hydroxypropylcellulose) (HPC) 96 % of control and 102 % of control | dose: 3.0 mg/kg/injection, schedule: Q04DX003 (ip), vehicle: Klucel (hydroxypropylcellulose) (HPC) 100 % of control | dose: 6.0 mg/kg/injection, schedule: Q04DX003 (ip), vehicle: Klucel (hydroxypropylcellulose) (HPC) 98 % of control

COc1cc(/C=N/Nc2cc(=O)[nH]c(N)n2)cc(OC)c1OC
inactive: [1] 98 % of control | [2] 100 % of control | [3] 100 % of control

Cc1ccc(C(c2ccccc2)C(COS(C)(=O)=O)COS(C)(=O)=O)cc1 (stereo not given)
inactive: dose: 75.0 mg/kg/injection, schedule: Q04DX002 (ip), vehicle: Klucel (hydroxypropylcellulose) (HPC) 90 % of control | dose: 150.0 mg/kg/injection, schedule: Q04DX002 (ip), vehicle: Klucel (hydroxypropylcellulose) (HPC) 97 % of control | dose: 300.0 mg/kg/injection, schedule: Q04DX002 (ip), vehicle: Klucel (hydroxypropylcellulose) (HPC) 108 % of control

Nc1nc(Cl)c(Br)c(=O)[nH]1
inactive: dose: 25.0 mg/kg/injection, schedule: Q01DX Z (ip), vehicle: methylcellulose (MC) 98 % of control | dose: 50.0 mg/kg/injection, schedule: Q01DX Z (ip), vehicle: methylcellulose (MC) 89 % of control

CCC(C(C)C)C(Br)C(Br)C(C)C1CCC2C3CC=C4CC(OC(C)=O)CCC4(C)C3CCC12C (stereo not given)
inactive: [4] 91 % of control | [5] 96 % of control

CCCCCCCCCCCCCCC(=O)N/N=C/c1ccc([N+](=O)[O-])s1
inactive: [6] 91 % of control | [7] 88 % of control | [8] 100 % of control

CSc1ccc(C(O)Cc2ccc([N+](=O)[O-])cc2)cc1 (stereo not given)
inactive: [9] 96 % of control | [1] 94 % of control | [4] 97 % of control | [2] 96 % of control | [5] 100 % of control | [3] 98 % of control

CN(C)CCOc1ncnc2nc[nH]c12
inactive: [10] 101 % of control | [11] 102 % of control | [12] 96 % of control

CC1CC/C(=C\c2ccccc2)C(=O)/C1=C/c1ccccc1 (stereo not given)
inactive: dose: 25.0 mg/kg/injection, schedule: Q01DX009 (ip), vehicle: DMSO 92 % of control | dose: 50.0 mg/kg/injection, schedule: Q01DX009 (ip), vehicle: DMSO 94 % of control | dose: 100.0 mg/kg/injection, schedule: Q01DX009 (ip), vehicle: DMSO 94 % of control and 91 % of control | dose: 100.0 mg/kg/injection, schedule: Q04DX003 (ip), vehicle: DMSO 105 % of control | dose: 200.0 mg/kg/injection, schedule: Q01DX009 (ip), vehicle: DMSO 102 % of control | dose: 200.0 mg/kg/injection, schedule: Q04DX003 (ip), vehicle: DMSO 100 % of control | dose: 400.0 mg/kg/injection, schedule: Q04DX003 (ip), vehicle: DMSO 95 % of control

NC(N)=Nc1ccc(C(=O)Oc2ccc([N+](=O)[O-])cc2[N+](=O)[O-])cc1
inactive: [13] 96 % of control | dose: 50.0 mg/kg/injection, schedule: Q01DX009 (ip), vehicle: Klucel (hydroxypropylcellulose) (HPC) 94 % of control | [14] 98 % of control | [9] 94 % of control | [1] 91 % of control

O=Cc1c[nH]c2nccnc12
inactive: dose: 100.0 mg/kg/injection, schedule: Q01DX009 (ip), vehicle: saline 94 % of control | [10] 96 % of control | dose: 200.0 mg/kg/injection, schedule: Q01DX009 (ip), vehicle: saline 97 % of control | [11] 93 % of control | dose: 400.0 mg/kg/injection, schedule: Q01DX009 (ip), vehicle: saline 100 % of control | [12] 93 % of control

Cc1cc(Cl)c(Cl)cc1NC(=O)C(Br)C(Br)C(=O)O (stereo not given)
inactive: [6] 97 % of control | [7] 96 % of control

CC1=C(N)C(=O)C(C)=C(N)C1=O
inactive: dose: 100.0 mg/kg/injection, schedule: Q01DX001 (ip), vehicle: other 98 % of control | dose: 200.0 mg/kg/injection, schedule: Q01DX001 (ip), vehicle: other 88 % of control | dose: 400.0 mg/kg/injection, schedule: Q01DX001 (ip), vehicle: other 97 % of control

O=C(c1ccccc1)C(C(O)CCl)C(O)(C(F)(F)F)C(F)(F)F (stereo not given)
inactive: [15] 89 % of control | [16] 93 % of control | dose: 400.0 mg/kg/injection, schedule: Q04DX003 (ip), vehicle: saline with Tween-80 91 % of control

Cc1cc(C)c(C)c(C(C)O)c1C (stereo not given)
inactive: [15] 96 % of control | [16] 94 % of control

CC1(C)COC(c2ccccc2)=N1
inactive: [6] 105 % of control | dose: 100.0 mg/kg/injection, schedule: Q04DX003 (ip), vehicle: saline sonified 93 % of control | [7] 103 % of control | dose: 200.0 mg/kg/injection, schedule: Q04DX003 (ip), vehicle: saline sonified 87 % of control | [8] 102 % of control | dose: 400.0 mg/kg/injection, schedule: Q04DX003 (ip), vehicle: saline sonified 90 % of control

CC(=O)Oc1cc2c(cc1OC(C)=O)C(=O)CCC=C2
inactive: [13] 104 % of control | [14] 106 % of control | dose: 100.0 mg/kg/injection, schedule: Q01DX009 (ip), vehicle: saline sonified 95 % of control | [1] 98 % of control and 115 % of control | dose: 200.0 mg/kg/injection, schedule: Q01DX009 (ip), vehicle: saline sonified 97 % of control | [2] 102 % of control | dose: 400.0 mg/kg/injection, schedule: Q01DX009 (ip), vehicle: saline sonified 99 % of control | [3] 100 % of control

CN(C)C(=O)NNC(=O)c1ccc(Cl)cc1
inactive: [15] 100 % of control | [16] 95 % of control

OCC(O)C1OC(Oc2ccccc2)C(O)C(O)C1O (stereo not given)
inactive: [10] 100 % of control | [11] 98 % of control | [12] 100 % of control

From PubChem BioAssay AID248 (DTP/NCI, 2004)
